The text below walks through data of US20260216239A1 (Arizona Board of Regents on Behalf of the University of …, priority 2020, published 2026).

One test concerns Bothrops moojeni venom. As to the kind of experiment: Thrombelastography in human plasma of venom procoagulant activity after isolated exposure of venom to compounds. The note with it: venom exposed to 100 μM carboplatin, 1 mM CORM-2 or both; venom 2 μg/ml in plasma. Type of test: biochemical. As for the experimental part:
(§1) Thrombelastographic analyses. The volumes of subsequently described plasmatic and other additives summed to a final volume of 360 μl. Samples were composed of 320 μl of plasma; 16.4 μl of PBS, 20 μl of 200 mM CaCl2), and 3.6 μl of PBS or venom mixture, which were pipetted into a disposable cup in a Thrombelastograph® hemostasis system (Model 5000, Haemonetics Inc., Braintree, MA, USA) at 37° C., and then rapidly mixed by moving the cup up against and then away from the plastic pin five times. The following viscoelastic parameters described previously (see, Nielsen V G (2019) J Thromb Thrombolysis 47, 73-79; Gessner G, et al., (2017) Eur J Pharmacol 815, 33-41; Nielsen V G, Wagner M T, Frank N (2020) Int J Mol Sci 21, 2082; Lazić D, Arsenijević A, Puchta R, Bugarčić ŽD, Rilak A (2016) Dalton Trans 45, 4633; Hanif M, et al., (2017) ChemPlusChem 82, 841-847) were measured: time to maximum rate of thrombus generation (TMRTG): this is the time interval (minutes) observed prior to maximum speed of clot growth; maximum rate of thrombus generation (MRTG): this is the maximum velocity of clot growth observed (dynes/cm^2/second); and total thrombus generation (TTG, dynes/cm^2), the final viscoelastic resistance observed after clot formation.
B. moojeni. This venom was exposed to 0 or 1 mM CORM-2 in the presence of 0 or 100 μM RuCl3 in PBS for at least 5 minutes at room temperature prior to placement into plasma followed immediately with commencement of thrombelastographic analysis. The final concentration of this venom in plasma was 2 μg/ml.
(§2) Given the aforementioned, the experimental conditions utilized were: 1) V condition—venom in PBS; 2) Ru(II) condition—venom exposed to CORM-2; 3) Ru(III) condition—venom exposed to RuCl3; 4) Ru(II+III) condition—venom exposed to CORM-2 and RuCl3 simultaneously. After the 5 minute period at room temperature, 3.6 μl of one of these solutions was added to the plasma sample in the plastic thrombelastograph cup.
(§3) The volumes of subsequently described plasmatic and other additives summed to a final volume of 360 μl. Samples were composed of 320 μl of plasma; 16.4 μl of PBS, 20 μl of 200 mM CaCl2), and 3.6 μl of PBS or venom mixture, which were pipetted into a disposable cup in a Thrombelastograph® hemostasis system (Model 5000, Haemonetics Inc., Braintree, MA, USA) at 37° C., and then rapidly mixed by moving the cup up against and then away from the plastic pin five times. The following viscoelastic parameters described previously (see, Nielsen, V. G. J Thromb Thrombolysis 2019, 47, 73-79; Gessner, G.; et al., Eur J Pharmacol 2017, 815, 33-41; Nielsen, V. G.; Wagner, M. T.; Frank, N. Int J Mol Sci 2020, 21, 2082; Lazid, D.; et al., Dalton Trans 2016, 45, 4633; Hanif, M.; et al., ChemPlusChem 2017, 82, 841-847) were measured: time to maximum rate of thrombus generation (TMRTG): this is the time interval (minutes) observed prior to maximum speed of clot growth; maximum rate of thrombus generation (MRTG): this is the maximum velocity of clot growth observed (dynes/cm2/second); and total thrombus generation (TTG, dynes/cm2), the final viscoelastic resistance observed after clot formation.
B. moojeni. This venom was exposed to 0 or 1 mM CORM-2 or CORM-3 in the presence of 0 or 100 μM RuCl3 in PBS for at least 5 minutes at room temperature prior to placement into plasma followed immediately with commencement of thrombelastographic analysis. This venom was also exposed to 0 or 1 mM CORM-2 in the presence of 0 or 100 μM carboplatin in another series of experiments. The final concentration of this venom in plasma was 2 μg/ml.
Given the aforementioned, the experimental conditions utilized were: 1) V condition—venom in PBS; 2) Ru(II) condition—venom exposed to CORM-2 or CORM-3; 3) Ru(III) condition—venom exposed to RuCl3; 4) Ru(II+III) condition—venom exposed to CORM-2 or CORM-3 and RuCl3 simultaneously; 5) Pt(II) condition—venom exposed to carboplatin; and 6) Pt+Ru condition—venom exposed to carboplatin and CORM-2.

Test [1] relates to Calloselasma rhodostoma venom. Described as above. Type of test: biochemical. As to conditions: venom exposed to 100 μM carboplatin, 100 μM CORM-2 or both; venom 5 μg/ml in plasma. As for the experimental part: as §1
C. rhodostoma. […] The final concentration of this venom in plasma was 5 μg/ml.
as §2, §3
C. rhodostoma. […] This venom was also exposed to 0 or 100 μM CORM-2 in the presence of 0 or 100 μM carboplatin in another series of experiments. The final concentration of this venom in plasma was 5 μg/ml.

Regarding `N.N.O=C([O-])C1(C(=O)[O-])CCC1.[Pt+2]` [carboplatin, reference compound], in the test on Bothrops moojeni venom, the coagulation kinetic parameters entry is “no significant change in any of the coagulation kinetic parameters”. Also, in test [1], the “procoagulant activity of venom” value is “no significant effect”.
